According to patent US6716635B2, “Method for identifying regulators of protein-advanced glycation end product (protein-AGE) formation” (University of Kentucky Research Foundation, priority 2000, dated 2004):

Tests used:
[1] = system: histone H1 (glycation by ADP-ribose); experiment: AGE-fluorescence screening of glycation inhibitors, histone H1 + ADP-ribose, 96 well microtiter plates; type: biochemical, calf; conditions: for inhibition of AGE-fluorescence, in words: 1 to 10 mM, 5 days; for AGE-fluorescence (day 5): 5 days incubation; for % inhibition: AGE-fluorescence day 5; for AGE-fluorescence (day 0): value (spread)
Description: A 96-well, microtiter plate was used to carry out 48 reactions in duplicate. […] A second pair of wells contains the reactants and the known glycation inhibitor aminoguanidine, and functions as a positive control. Histone H1 is commercially available, and can be prepared following the procedures set out in Johns, et al., Biochem J. 92:55-59(1964), which is incorporated by reference herein.
The reaction system is 50 mM potassium phosphate buffer, at pH 7.4 to which 1.5 mg/ml histone H1 and 1.0 mM ADP-ribose were added. Reaction volume was 300 ul. AGE-fluorescence was measured over time, with incubation at 37° C., at 355 nm (ex) and 405 nm (em). Upon comparison to the control, a test compound was deemed potentially positive if AGE-fluorescence was suppressed.
The histone H1 (1.5 mg/ml) was combined with 1 mM ADP-ribose, in […] KH2PO4 buffer (pH 7.4, 37° C., 0.015% NaN3 added, to inhibit microbial growth). This reaction mixture was added, to 96 well microtiter plates. Test compounds were added to the reaction mixture, at concentrations ranging from 1 to 10 mM, in reaction volumes of 300 ul. Texts were run in duplicate.
Accumulated protein damage was determined by measuring AGE-fluorescence, at wavelengths (λex=370 nm; λ em=440 nm. The fluorescence is suppressed in the presence of compounds with inhibitory activity. Assays were read on a conventional microtiter plate, with a filter setting that approached the above conditions (λ ex: 355 nm, λ […]: 405 nm), which is in the range of the broad excitation/emission maxima of AGE compounds.
The fluorescence was measured at the beginning, and after 5 days of incubation.
The known glycation inhibitor aminoguanidine was used as a control.

[2] = system: histone H1 (cross linking by ADP-ribose); experiment: glycation induced cross linking of histone H1, 12% SDS-PAGE, silver staining; type: biochemical, calf; conditions: aliquots of 5 day incubation mixtures
Description: This example describes a secondary screening, to further evaluate compounds which were deemed positive following the assays of examples 1 and 2. Specifically, it will be recalled that each sample was tested in two wells, one of which was tested in example 2, supra. The sample not used was analyzed, via 12% SDS-PAGE, followed by silver staining, in order to visualize protein cross-linking. This serves as an independent measure of glycation caused protein damage. […] To test this, reaction aliquots of the 5 day incubation mixtures, described in Example 1, supra, were assessed on 12% SDS-PAGE. Both untreated histone H1, and the aminoguanidine containing positive control were tested in the same way. All were visualized by silver staining.

[3] = system: histone H1 (carbonylation); experiment: histone H1 carbonylation by reducing sugars, and interference by compounds; type: biochemical; conditions: compound 5 mM
Description: Both protein cross-linking and protein carbonylation are well established indicia of protein glycation. See Schacter, et al., Free Radic Biol Med. 17:429-437 (1994), incorporated by reference. In brief, following the assays described infra, formation of protein cross-linking was measured on 12% SDS-PAGE, followed by Coomassie and silver staining. Cross-linking was detectable with a high degree of sensitivity, when the reaction between ADP-ribose and histone H1 was carried out at pH 9.0. […] In FIG. 8, the abbreviations “M,” “D”, and “O” represent “monomer,” “dimer” and “oligomer,” respectively. Silver staining is the preferred way of determining the cross linking. Protein carbonlyation was determined via Western blotting. Specifically, AGE-BSA, which had been prepared by incubating BSA with 1.66M glucose, at pH 7.4 for 90 days at 37° C., was recognized after being derivatized with 2.4 dinitrophenlyhydrazine (“DNP”), when tested with antibodies specific for protein bound, DNP epitopes.
A series of experiments were carried out to compare different reducing sugars as glycation agents. In addition to ADP-ribose, ADP-glucose, D-ribose and D-glucose were tested. Briefly, histone H1 was combined with 1 mM of each sugar, and the mixture was incubated at pH 7.4. After 7 days of incubation, reaction aliquots were analyzed on 12% SDS-PACE gels, with silver staining. Results are presented in FIGS. 19A and B. In each of these, lane 1 is a control, with no sugar added, while lanes 2-5 show results using D-glucose, D-ribose, ADP-glucose, and ADP-ribose, respectively. […] The amount of carbonylation caused by ADP-ribose (0.82 mole/mole histone H1), and D-ribose (0.06 mole/mole histone H1) correlated with immunostaining.
In order to determine if the carbonylation of histone H1 by ADP-ribose involved an oxidative pathway, several compounds, known to interfere with glycoxidation of proteins by D-glucose were tested to determine if they interfered with this action by ADP-ribose. The compounds tested included 5 mM DTPA under argon, 5 mM aminoguanidine, 5 mM N^α acetyl L-cysteine, 5 mM mannitol, and 100 units/ml catalase.

[4] = system: CF-3 (human dermal fibroblasts); experiment: protection against α-dicarbonyl toxicity in fibroblasts, cell count; type: cell-based; conditions: for protection against methylglyoxal induced growth inhibition: compound 1 mM added 15 minutes prior to methylglyoxal, 72 hours
Description: (§1) Continuously cultured cell lines “He-Cat” (human epidermal keratinocytes), and “CF-3” (human dermal fibroblasts), were cultured under standard conditions, divided biweekly into DMEM containing 10% fetal bovine serum, and were kept in a humidified atmosphere containing 5% CO2 at 37° C. In order to divide the cells, 5% trypsin was used on the keratinocytes, and 1% trypsin was used on the fibroblasts.
(§2) Keratinocytes were seeded at 2×10^4 cells/well, and fibroblasts at 4×10^4 cells/well, using 6 well dishes. The cells were allowed to attach to the plate overnight. Either D-penicillamine or aminoguanidine (1 mM each) was added to the plates 15 minutes prior to addition of glyoxal or methylglyoxal. The α-dicarbonyl was left for 72 hours. Varying concentrations of the α-dicarbonyl were used. Cells were counted with a Coulter counter after 72 hours of stress. Cultures were also run where the glyoxal or methylglyoxal was used without the scavenger. L-alanine was used as a negative control as it was not expected to have protective effect.

[5] = system: He-Cat (human epidermal keratinocytes); experiment: protection against α-dicarbonyl toxicity in keratinocytes, cell count; type: cell-based; conditions: for protection against growth inhibition by glyoxal: compound 1 mM added 15 minutes prior to glyoxal; for protection against growth inhibition by glyoxal / protection against methylglyoxal induced growth inhibition: 72 hours; for protection against methylglyoxal induced growth inhibition: compound 1 mM added 15 minutes prior to methylglyoxal
Description: as §1, §2

[6] = α-dicarbonyl trapping, reaction with phenylglyoxal followed by HPLC
Description: To learn more about the reaction, D-penicillamine was reacted with phenylglyoxal. In the fashion described supra, phenylgyloxal, at final concentration of 10 mM, and D-penicillamine, at final concentration of 20 mM were reacted in 50 mM KH2PO4 buffer, pH 7.4, at room temperature. Reaction progress was monitored via HPLC analysis of reaction aliquots at 254 nm. After 40 minutes, more than 90% conversion of phenylgloxal peak into a single peak was observed. The product was obtained via preparative HPLC, was lyophilized, and analyzed by H-NMR spectroscopy.
Reactions were carried out in 10 mM phosphate buffer, pH 7.4, at 37° C., and were followed by HPLC analysis. Phenylglyoxal was used at a concentration of 50 mM, while D-penicillamine and aminoguanidine were used at concentrations of 250 mM, and 500 mM. The phenylglyoxal was used as a UV active, α-oxoaldehyde compound. Over the course of the reaction, aliquots were analyzed via HPLC. […] Initial reaction rates of phenylglyoxal and test compounds were monitored by following the disappearance of phenylglyoxal over time. […]
The measured, first order rate constant (k1st) was used to calculate the second order rate constant (k2nd), according to: […]
The calculated second order rate constants were determined at two reactant rates (5:1, and 10:1), and were in good agreement.

[7] = aldehyde trapping, reaction with phenylacetaldehyde followed by HPLC; conditions: same manner as phenylglyoxal
Description: Reactions were carried out in 10 mM phosphate buffer, pH 7.4, at 37° C., and were followed by HPLC analysis. Phenylglyoxal was used at a concentration of 50 mM, while D-penicillamine and aminoguanidine were used at concentrations of 250 mM, and 500 mM. The phenylglyoxal was used as a UV active, α-oxoaldehyde compound. Over the course of the reaction, aliquots were analyzed via HPLC. For reactions involving D-penicillamine, aliquots were taken at 20 second intervals and kept on dry ice for analysis. Initial reaction rates of phenylglyoxal and test compounds were monitored by following the disappearance of phenylglyoxal over time. D-penicillamine trapped phenylglyoxal more than 60 times faster than aminoguanidine. In order to determine if the α-oxo substitution had any impact on the progress of the aldehyde trapping reaction, the reactivity of D-penicillamine with the aldehyde corresponding to phenylglyoxal, i.e., phenylacetaldehyde, was carried out, in the same manner as is described herein.

[8] = increased concentration of D-penicillamine, methylglyoxal
[9] = treated with 6004M methylglyoxal (so in the source)

| SMILES | inhibition of AGE-fluorescence, in words [1] | AGE-fluorescence (day 5) ([1]; compound 1 mM) | % inhibition ([1]; compound 1 mM) | AGE-fluorescence (day 0) ([1]; compound 1 mM) | AGE-fluorescence (day 5) ([1]; compound 5 mM) | % inhibition ([1]; compound 5 mM) | AGE-fluorescence (day 0) ([1]; compound 5 mM) | AGE-fluorescence (day 5) ([1]; compound 10 mM) | % inhibition ([1]; compound 10 mM) | AGE-fluorescence (day 0) ([1]; compound 10 mM) | inhibition of histone H1 cross linking [2] | protection against methylglyoxal induced growth inhibition [4] | protection against growth inhibition by glyoxal [5] | protection against methylglyoxal induced growth inhibition [5] | further results |
| --- | --- | --- | --- | --- | --- | --- | --- | --- | --- | --- | --- | --- | --- | --- | --- |
| CC(C)(S)C(N)C(=O)O (racemic) [D,L-Penicillamine] | the best of the compounds tested | 13 (0.0) | 40% | 1.1 (0.2) | 2.7 (0.0) | 92% | 1.1 (0.1) | 1.7 (0.0) | 97% | 1.1 (0.1) | more potent than aminoguanidine |  |  |  |  |
| N=C(N)NN [Aminoguanidine, aminoguanidine, reference compound] |  | 4.3 (0.2) | 84% | 1.2 (0.1) | 2.2 (0.0) | 96% | 1.2 (0.1) | 1.8 (0.0) | 97% | 1.3 (0.1) |  | rescued both cell lines from methylglyoxal induced growth inhibition in part | appeared to protect keratinocytes against growth inhibition by glyoxal | rescued both cell lines from methylglyoxal induced growth inhibition in part | interference with carbonylation of histone H1 by ADP-ribose [3]: slight effect; suppression of AGE-fluorescence, primary screen outcome ([1]; test compound 5 mM or limit of solubility, pH 7.4, 37° C.): suppresses the glycation of histone H1 by ADP-ribose |
| CC(C)(S)[C@@H](N)C(=O)O [D-Penicillamine, reference compound] | the best of the compounds tested | 11 (0.6) | 51% | 1.2 (0.0) | 2.9 (0.3) | 91% | 1.1 (0.1) | 1.4 (0.1) | 99% | 1.1 (0.0) | more potent than aminoguanidine | almost completely blocked methylglyoxal's toxicity | appeared to protect keratinocytes against growth inhibition by glyoxal | almost completely blocked methylglyoxal's toxicity | conversion of phenylglyoxal peak into a single peak ([6]; phenylglyoxal 10 mM, D-penicillamine 20 mM, 50 mM KH2PO4 pH 7.4, room temperature, after 40 minutes): more than 90%; rate of phenylglyoxal trapping relative to aminoguanidine ([6]; second order rate constants, 10 mM phosphate buffer pH 7.4, 37° C.): more than 60 times faster; dose range cyto-protective effect [4, 8]: increased protection; survival [4, 9]: 47%; efficiency of trapping phenylacetaldehyde relative to phenylglyoxal [7]: about 14 times less efficiently; dose range cyto-protective effect [5, 8]: increased protection; survival [5, 9]: 100% |
| NC(=O)C1=CN([C@@H]2O[C@H](COP(=O)(O)OP(=O)(O)OC[C@H]3O[C@@H](n4cnc5c(N)ncnc54)[C@H](O)[C@@H]3O)[C@@H](O)[C@H]2O)C=CC1 [NADH] |  |  |  |  | 31 (0.0) |  |  |  |  |  | no inhibitory activity |  |  |  |  |
